#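 Five compound concentrations were applied to cells in 96-well plates for 48 hours; endpoints were derived by simple linear interpolation of the resulting dose-response curve. Abbreviation: GI50, concentration required for 50% inhibition of growth. TGI denotes the concentration required for complete inhibition of growth.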
# Test system: MDA-MB-435
# Test: DTP human tumour cell line panel, 48 h
row,Structure (SMILES),TGI [µM]
1,Cc1ccc(-n2c(N)c(C#N)c3[nH]nc(N)c3c2=O)cc1,> 100

# Test system: TK-10 renal
# Test: DTP human tumour cell line panel, 48 h
row,Structure (SMILES),TGI [µM]
1,Cn1nc(C(=O)N2CC(CCl)c3c2cc(N)c2ccccc32)cc1NC(=O)Nc1cc(C(=O)N2CC(CCl)c3c2cc(N)c2ccccc32)nn1C (stereo unspecified),> 100
2,CN(C)C1(N(C)C)Oc2c(c(=O)n(C)c(=O)n2C)C(c2ccccc2)C1(F)F (stereo unspecified),> 100
3,CC1CCC(C(C)C)C(OC(=O)NCn2cc(-c3ccccc3)nn2)C1 (stereo unspecified),> 100
4,Cc1ccc(-n2c(N)c(C#N)c3[nH]nc(N)c3c2=O)cc1,> 100

# Test system: NCI-H226 lung
# Test: DTP human tumour cell line panel, 48 h
Structure (SMILES),TGI [µM],GI50 [µM]
CN(C)C1(N(C)C)Oc2c(c(=O)n(C)c(=O)n2C)C(c2ccccc2)C1(F)F (stereo unspecified),> 100,
COc1ccc2[nH]cc(C3(c4c[nH]c5ccc(OC)cc45)C(=O)Nc4ccc(F)cc43)c2c1,12,2.58
Oc1cc2cccc[n+]2c2cc(Cl)ccc12,,81
CC(C)(C)c1ccc(O)c(C(O)c2ccncc2)c1 (stereo unspecified),> 100,
CC1CCC(C(C)C)C(OC(=O)NCn2cc(-c3ccccc3)nn2)C1 (stereo unspecified),> 100,
Cc1ccc(-n2c(N)c(C#N)c3[nH]nc(N)c3c2=O)cc1,> 100,

# Test system: UACC-257 melanoma
# Test: DTP human tumour cell line panel, 48 h
Structure (SMILES),TGI [µM],GI50 [µM]
CN(C)C1(N(C)C)Oc2c(c(=O)n(C)c(=O)n2C)C(c2ccccc2)C1(F)F (stereo unspecified),> 100,
COc1ccc2[nH]cc(C3(c4c[nH]c5ccc(OC)cc45)C(=O)Nc4ccc(F)cc43)c2c1,6.23,2.2
CC1CCC(C(C)C)C(OC(=O)NCn2cc(-c3ccccc3)nn2)C1 (stereo unspecified),> 100,
Cc1ccc(-n2c(N)c(C#N)c3[nH]nc(N)c3c2=O)cc1,> 100,

# Test system: EKVX NSCLC
# Test: DTP human tumour cell line panel, 48 h
Structure (SMILES),TGI [µM],GI50 [µM]
Cn1nc(C(=O)N2CC(CCl)c3c2cc(N)c2ccccc32)cc1NC(=O)Nc1cc(C(=O)N2CC(CCl)c3c2cc(N)c2ccccc32)nn1C (stereo unspecified),> 100,
CN(C)C1(N(C)C)Oc2c(c(=O)n(C)c(=O)n2C)C(c2ccccc2)C1(F)F (stereo unspecified),> 100,
COc1ccc2[nH]cc(C3(c4c[nH]c5ccc(OC)cc45)C(=O)Nc4ccc(F)cc43)c2c1,8.07,2.35
CC(C)(C)c1ccc(O)c(C(O)c2ccncc2)c1 (stereo unspecified),> 100,
CC1CCC(C(C)C)C(OC(=O)NCn2cc(-c3ccccc3)nn2)C1 (stereo unspecified),> 100,
Cc1ccc(-n2c(N)c(C#N)c3[nH]nc(N)c3c2=O)cc1,> 100,

# Test system: HT29 colon
# Test: DTP human tumour cell line panel, 48 h
Structure (SMILES),GI50 [µM],TGI [µM]
COc1ccc2[nH]cc(C3(c4c[nH]c5ccc(OC)cc45)C(=O)Nc4ccc(F)cc43)c2c1,2.44,6.14
Oc1cc2cccc[n+]2c2cc(Cl)ccc12,71,
CC(C)(C)c1ccc(O)c(C(O)c2ccncc2)c1 (stereo unspecified),,> 100
CC1CCC(C(C)C)C(OC(=O)NCn2cc(-c3ccccc3)nn2)C1 (stereo unspecified),,> 100
Cc1ccc(-n2c(N)c(C#N)c3[nH]nc(N)c3c2=O)cc1,,> 100

# Test system: M14 melanoma
# Test: DTP human tumour cell line panel, 48 h
Structure (SMILES),TGI [µM],GI50 [µM]
Cn1nc(C(=O)N2CC(CCl)c3c2cc(N)c2ccccc32)cc1NC(=O)Nc1cc(C(=O)N2CC(CCl)c3c2cc(N)c2ccccc32)nn1C (stereo unspecified),5.58,
CN(C)C1(N(C)C)Oc2c(c(=O)n(C)c(=O)n2C)C(c2ccccc2)C1(F)F (stereo unspecified),> 100,
COc1ccc2[nH]cc(C3(c4c[nH]c5ccc(OC)cc45)C(=O)Nc4ccc(F)cc43)c2c1,6.77,2.41
CC1CCC(C(C)C)C(OC(=O)NCn2cc(-c3ccccc3)nn2)C1 (stereo unspecified),> 100,
Cc1ccc(-n2c(N)c(C#N)c3[nH]nc(N)c3c2=O)cc1,> 100,

# Test system: UO-31 renal
# Test: DTP human tumour cell line panel, 48 h
Structure (SMILES),TGI [µM],GI50 [µM]
Cn1nc(C(=O)N2CC(CCl)c3c2cc(N)c2ccccc32)cc1NC(=O)Nc1cc(C(=O)N2CC(CCl)c3c2cc(N)c2ccccc32)nn1C (stereo unspecified),65.5,
CN(C)C1(N(C)C)Oc2c(c(=O)n(C)c(=O)n2C)C(c2ccccc2)C1(F)F (stereo unspecified),> 100,
COc1ccc2[nH]cc(C3(c4c[nH]c5ccc(OC)cc45)C(=O)Nc4ccc(F)cc43)c2c1,11.9,1.51
Oc1cc2cccc[n+]2c2cc(Cl)ccc12,,57.9
CC(C)(C)c1ccc(O)c(C(O)c2ccncc2)c1 (stereo unspecified),> 100,
Cc1ccc(-n2c(N)c(C#N)c3[nH]nc(N)c3c2=O)cc1,> 100,

# Test system: ACHN renal
# Test: DTP human tumour cell line panel, 48 h
Structure (SMILES),TGI [µM],GI50 [µM]
Cn1nc(C(=O)N2CC(CCl)c3c2cc(N)c2ccccc32)cc1NC(=O)Nc1cc(C(=O)N2CC(CCl)c3c2cc(N)c2ccccc32)nn1C (stereo unspecified),> 100,
CN(C)C1(N(C)C)Oc2c(c(=O)n(C)c(=O)n2C)C(c2ccccc2)C1(F)F (stereo unspecified),> 100,
C=CCn1c(C)nc2ccc(Nc3nc(Nc4ccc5nc(C)n(CC=C)c5c4)c4ccccc4n3)cc21,3.01,1.64
COc1ccc2[nH]cc(C3(c4c[nH]c5ccc(OC)cc45)C(=O)Nc4ccc(F)cc43)c2c1,10.1,2.93
CC(C)(C)c1ccc(O)c(C(O)c2ccncc2)c1 (stereo unspecified),> 100,
CC1CCC(C(C)C)C(OC(=O)NCn2cc(-c3ccccc3)nn2)C1 (stereo unspecified),> 100,
Cc1ccc(-n2c(N)c(C#N)c3[nH]nc(N)c3c2=O)cc1,> 100,

# Test system: SR leukemia
# Test: DTP human tumour cell line panel, 48 h
Structure (SMILES),GI50 [µM],TGI [µM]
C=CCn1c(C)nc2ccc(Nc3nc(Nc4ccc5nc(C)n(CC=C)c5c4)c4ccccc4n3)cc21,1.52,3.98
COc1ccc2[nH]cc(C3(c4c[nH]c5ccc(OC)cc45)C(=O)Nc4ccc(F)cc43)c2c1,2.03,4.97
Oc1cc2cccc[n+]2c2cc(Cl)ccc12,48.4,
CC1CCC(C(C)C)C(OC(=O)NCn2cc(-c3ccccc3)nn2)C1 (stereo unspecified),,> 100

# Test system: UACC-62 melanoma
# Test: DTP human tumour cell line panel, 48 h
Structure (SMILES),TGI [µM],GI50 [µM]
CN(C)C1(N(C)C)Oc2c(c(=O)n(C)c(=O)n2C)C(c2ccccc2)C1(F)F (stereo unspecified),> 100,
C=CCn1c(C)nc2ccc(Nc3nc(Nc4ccc5nc(C)n(CC=C)c5c4)c4ccccc4n3)cc21,2.89,1.55
COc1ccc2[nH]cc(C3(c4c[nH]c5ccc(OC)cc45)C(=O)Nc4ccc(F)cc43)c2c1,6.1,1.98
Cc1ccc(-n2c(N)c(C#N)c3[nH]nc(N)c3c2=O)cc1,> 100,

# Test system: A498 renal
# Test: DTP human tumour cell line panel, 48 h
Structure (SMILES),TGI [µM],GI50 [µM]
Cn1nc(C(=O)N2CC(CCl)c3c2cc(N)c2ccccc32)cc1NC(=O)Nc1cc(C(=O)N2CC(CCl)c3c2cc(N)c2ccccc32)nn1C (stereo unspecified),54.5,
CN(C)C1(N(C)C)Oc2c(c(=O)n(C)c(=O)n2C)C(c2ccccc2)C1(F)F (stereo unspecified),> 100,
COc1ccc2[nH]cc(C3(c4c[nH]c5ccc(OC)cc45)C(=O)Nc4ccc(F)cc43)c2c1,12,2.56
Oc1cc2cccc[n+]2c2cc(Cl)ccc12,32.4,18.2
Cc1ccc(-n2c(N)c(C#N)c3[nH]nc(N)c3c2=O)cc1,> 100,

# Test system: PC-3 prostate
# Test: DTP human tumour cell line panel, 48 h
Structure (SMILES),TGI [µM],GI50 [µM]
CN(C)C1(N(C)C)Oc2c(c(=O)n(C)c(=O)n2C)C(c2ccccc2)C1(F)F (stereo unspecified),> 100,
COc1ccc2[nH]cc(C3(c4c[nH]c5ccc(OC)cc45)C(=O)Nc4ccc(F)cc43)c2c1,16.5,3.13
CC1CCC(C(C)C)C(OC(=O)NCn2cc(-c3ccccc3)nn2)C1 (stereo unspecified),> 100,
Cc1ccc(-n2c(N)c(C#N)c3[nH]nc(N)c3c2=O)cc1,> 100,

# Test system: MOLT-4 leukemia
# Test: DTP human tumour cell line panel, 48 h
Structure (SMILES),TGI [µM],GI50 [µM]
CN(C)C1(N(C)C)Oc2c(c(=O)n(C)c(=O)n2C)C(c2ccccc2)C1(F)F (stereo unspecified),> 100,
COc1ccc2[nH]cc(C3(c4c[nH]c5ccc(OC)cc45)C(=O)Nc4ccc(F)cc43)c2c1,6.08,1.97
Oc1cc2cccc[n+]2c2cc(Cl)ccc12,,57.3
CC(C)(C)c1ccc(O)c(C(O)c2ccncc2)c1 (stereo unspecified),> 100,
Cc1ccc(-n2c(N)c(C#N)c3[nH]nc(N)c3c2=O)cc1,> 100,

# Test system: RPMI-8226 leukemia
# Test: DTP human tumour cell line panel, 48 h
Structure (SMILES),TGI [µM],GI50 [µM]
Cn1nc(C(=O)N2CC(CCl)c3c2cc(N)c2ccccc32)cc1NC(=O)Nc1cc(C(=O)N2CC(CCl)c3c2cc(N)c2ccccc32)nn1C (stereo unspecified),> 100,
CN(C)C1(N(C)C)Oc2c(c(=O)n(C)c(=O)n2C)C(c2ccccc2)C1(F)F (stereo unspecified),> 100,
COc1ccc2[nH]cc(C3(c4c[nH]c5ccc(OC)cc45)C(=O)Nc4ccc(F)cc43)c2c1,> 100,4.41
Oc1cc2cccc[n+]2c2cc(Cl)ccc12,,57
CC1CCC(C(C)C)C(OC(=O)NCn2cc(-c3ccccc3)nn2)C1 (stereo unspecified),> 100,
Cc1ccc(-n2c(N)c(C#N)c3[nH]nc(N)c3c2=O)cc1,> 100,

# Test system: OVCAR-5 ovarian
# Test: DTP human tumour cell line panel, 48 h
row,Structure (SMILES),TGI [µM]
1,Cn1nc(C(=O)N2CC(CCl)c3c2cc(N)c2ccccc32)cc1NC(=O)Nc1cc(C(=O)N2CC(CCl)c3c2cc(N)c2ccccc32)nn1C (stereo unspecified),> 100
2,CN(C)C1(N(C)C)Oc2c(c(=O)n(C)c(=O)n2C)C(c2ccccc2)C1(F)F (stereo unspecified),> 100
